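All cell lines were grown in 96-well plates and treated with compound for 48 hours. Abbreviation: GI50, concentration required for 50% inhibition of growth.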 The source made the active and inactive calls. Rule as the data show it: active = GI50 up to about 1.1 µM and inactive = higher.
Tests used:
Assay in all cases: inhibition of tumour cell growth, NCI panel, 48 h
HOP-18 = tested on: HOP-18
KM-20L2 = tested on: KM-20L2
SNB-78 = tested on: SNB-78
DMS-273 = tested on: DMS-273
M19-MEL = tested on: M19-MEL
RXF 631 = tested on: RXF 631
DMS-114 = tested on: DMS-114
BT-549 = tested on: BT-549
XF498 = tested on: XF498

Measured: GI50

Cn1c(NC(=O)NC23CC4CC(CC(C4)C2)C3)nc2ccccc21
inactive: HOP-18 19.2 µM | KM-20L2 > 100 µM | SNB-78 23.8 µM | DMS-273 26.5 µM | M19-MEL 57.5 µM

COc1cc(C=O)c(-c2c(C=O)ccc3c2OCO3)c(OC)c1OC
inactive: RXF 631 > 100 µM | HOP-18 > 100 µM | KM-20L2 > 100 µM | DMS-114 > 100 µM | SNB-78 > 100 µM | DMS-273 72.6 µM | M19-MEL 61.4 µM

CCOC(=O)/C(C#N)=C/c1ccc(SCc2ccco2)c([N+](=O)[O-])c1
inactive: BT-549 > 100 µM

CC1(C)/C(=N\Nc2ccc([N+](=O)[O-])cc2[N+](=O)[O-])C2CCC1C2 (stereo unspecified)
inactive: BT-549 > 100 µM

O=C(c1ccccc1)C(C(=O)c1ccccc1)C1(O)C(=O)c2ccccc2C1=O
inactive: XF498 84.1 µM | HOP-18 68.4 µM | KM-20L2 34.9 µM | DMS-114 > 10 µM | SNB-78 62.2 µM | DMS-273 20.6 µM | M19-MEL 16.6 µM

O=NN(CCCl)C(=O)NC1CCCCC1 [LOMUSTINE]
inactive: RXF 631 47.8 µM | XF498 64.9 µM | HOP-18 31.6 µM | KM-20L2 60.3 µM | DMS-114 45.8 µM | DMS-273 48.1 µM | M19-MEL 53 µM | BT-549 8.24 µM

CCOC(=O)c1ccc(NC(=O)Oc2ccc3c(C)cc(=O)oc3c2)cc1
inactive: BT-549 17.2 µM

CC1=C(C(=O)Nc2ccccc2C)C(c2ccc(N(C)C)cc2)C(C(=O)Nc2ccccc2C)=C(C)N1
inactive: RXF 631 56.4 µM | XF498 22.6 µM | KM-20L2 > 100 µM | DMS-114 48.4 µM | DMS-273 64.9 µM | M19-MEL > 100 µM

CC1CC/C(=C\c2ccc(Cl)cc2)C2OC(N)=C(C#N)C(c3ccc(Cl)cc3)=C12 (stereo unspecified)
inactive: BT-549 15.2 µM

CC(C)(C)C1CC[C@H]2c3c([nH]c4ccccc34)[C@H]3C(=O)N(c4ccc(F)cc4)C(=O)[C@H]3[C@H]2C1 (stereo partly specified)
inactive: XF498 14.2 µM | HOP-18 17.1 µM | KM-20L2 17.5 µM | DMS-114 17.1 µM | SNB-78 18.4 µM | DMS-273 17.8 µM | M19-MEL 17.1 µM

O=C(Nc1ccccc1)c1cc2ccccc2c(/N=N\c2cccc([N+](=O)[O-])c2)c1O
inactive: BT-549 > 100 µM

O=C1Oc2ccccc2C(=O)/C1=C\Nc1nc(-c2ccc(O)c(O)c2)cs1
inactive: BT-549 5.77 µM

Cc1ccc(OCC2OC(n3cnc4c(Cl)nc(Cl)nc43)CC2Oc2ccc(C)cc2)cc1 (stereo unspecified)
inactive: BT-549 2.17 µM

CCNC(=O)c1ccc(C)c(/N=N/N(C)C)c1
inactive: KM-20L2 > 100 µM | SNB-78 > 100 µM | DMS-273 > 100 µM | M19-MEL > 100 µM

C=CC[C@]1(/C=N/O)CN(S(=O)(=O)CC[Si](C)(C)C)C[C@H]2CC=CC[C@H]21
inactive: BT-549 28.5 µM

COc1ccc2c(c1)CCc1c-2n(CCN2CCOCC2)c2ccc(OC)cc12
inactive: BT-549 > 100 µM

CC(C)CCCC(C)C1CCC2C3CC([N+](=O)[O-])=C4CC(O)CCC4(C)C3CCC12C (stereo unspecified)
inactive: XF498 22.3 µM | KM-20L2 18.5 µM | DMS-114 22 µM | DMS-273 12.6 µM | M19-MEL 27.6 µM

CCOc1ccc2nc(NC(=O)C(=O)C3C(=O)C(CC4C(=O)c5ccccc5C4=O)C(=O)CC3(C)C)sc2c1 (stereo unspecified)
inactive: BT-549 > 100 µM

O=c1cc(NNc2ccc(F)cc2)[nH]c(=O)[nH]1
inactive: BT-549 13.6 µM

OC1c2ccccc2[C@@H]2[C@H]1[C@@H](c1ccccc1)C1(Cc3ccccc3C1O)[C@H]2c1ccccc1 (stereo partly specified)
inactive: BT-549 14.7 µM

O=[N+]([O-])c1ccccc1C1SCc2nc3ccccc3n21 (stereo unspecified)
inactive: RXF 631 93.1 µM | XF498 13.7 µM | HOP-18 > 100 µM | DMS-114 66.2 µM | DMS-273 > 100 µM

CCCCCn1c(=O)c2c(=O)[nH][nH]c2c2ccccc21
inactive: BT-549 > 100 µM

Cc1cc(O)c(C=O)c2c1C(=O)Oc1c(CO)c(O)c3c(c1O2)C(O)OC3=O (stereo unspecified) [SLAZINIC ACID]
inactive: BT-549 > 100 µM

CC1CCC2N(C1)CC1C3(O)CC45OC6(O)C(O)CCC4(C)C6CCC5C3(O)CC(O)C1(O)C2(C)O (stereo unspecified)
inactive: BT-549 > 100 µM

COC(=O)C1=CC(=O)OC1(OO)c1ccc(Br)cc1 (stereo unspecified)
inactive: BT-549 > 100 µM

Nc1ccc(C(=O)NN2C(=O)C(Cl)C2c2cc(Br)cc(Br)c2O)cc1 (stereo unspecified)
inactive: XF498 14.1 µM | HOP-18 3.56 µM | KM-20L2 33.3 µM | DMS-114 4.22 µM | SNB-78 63.8 µM | DMS-273 6.4 µM | M19-MEL 11.9 µM

COC(=O)CCCC(=O)O
inactive: BT-549 > 100 µM

CCCCCCCCCCCCCCCCCCNC(=O)C(N)Cc1ccc(OCc2ccccc2)cn1 (stereo unspecified)
inactive: BT-549 23.4 µM

Nc1nc(N)c(-c2ccccc2)c(C(=O)Nc2ccccc2)n1
inactive: XF498 > 100 µM | HOP-18 > 100 µM | KM-20L2 > 100 µM | SNB-78 > 100 µM | M19-MEL > 100 µM

CC1(CO)OC(n2cc(C(=O)NC(=O)OCc3ccccc3)c(=O)[nH]c2=O)CC1O (stereo unspecified)
inactive: RXF 631 > 100 µM | XF498 > 100 µM | HOP-18 > 100 µM | KM-20L2 > 100 µM | DMS-114 > 100 µM | DMS-273 > 100 µM | M19-MEL > 100 µM

Reference: ChEMBL document CHEMBL1201862, “PubChem BioAssay data set” (2004)
